Tests used:
Format in all cases: in vivo
[1] = test system: Stellaria media, Amaranthus retroflexus, Sinapis avreuse, Avena fatura, Lolium multiflorum and Setaria viridis; experiment: Post-emergence action against weeds (greenhouse pot test, visual rating); conditions: three-leaf stage, application rate of 3.0 kg or less of active substance per hectare, 3 to 4 weeks in greenhouse
Method in brief: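 Greenhouse pot plants sown in sandy loam were sprayed at the three-leaf stage, 2–3 weeks after sowing. Compounds were formulated as wettable powders or emulsion concentrates and applied onto green parts at various dosages. Action was rated visually against untreated controls after 3–4 weeks.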

[2] = test system: Cyperus iria and Echinocloa crus-galli; experiment: Action on weeds in rice (paddy rice conditions, visual rating); conditions: dammed height of water 2-3 cm, about three weeks after application; further: test concentration or dose not given here
Excerpt: Typical rice weeds such as Echinocloa crus galli and Cyperus iria are cultivated in a greenhouse under paddy rice conditions ([…] height of water: 2-3 cm). After the treatment, the test plants are set up in a greenhouse under optimum growth conditions and are maintained in this way under these conditions throughout the test period. About three weeks after application, evaluation is made by visual rating of the damage to the plants by comparison with untreated controls.

[3] = test system: Stellaria media, Amaranthus retroflexus, Sinapis avreuse, Avena fatura, Lolium multiflorum and Setaria viridis; experiment: Pre-emergence action against weeds (greenhouse pot test, visual rating); conditions: application rate of 3.0 kg or less of active substance per hectare, trial period of 3 to 4 weeks
Method in brief: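 Seeds in sandy loam were treated pre-emergence by soil-surface application of WP or EC formulations at various dosages in 600–800 L water/ha. After 3–4 weeks in a greenhouse, damage or reduced emergence was rated visually against untreated controls.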

| Structure (SMILES) | herbicidal activity post-emergence (rated visually) [1] | herbicidal activity against rice weeds (visual rating of damage) [2] | herbicidal activity pre-emergence (damage to the plants or negative effect on emergence, rated visually) [3] |
| --- | --- | --- | --- |
| CCC(CCOc1ccccc1)Nc1nc(N)nc(C(C)C)n1 (stereo not drawn) [Example 231] | good and in most cases very good herbicidal activity | very good herbicidal activity | good and in most cases very good herbicidal activity |
| COc1cccc(OCCC(C)Nc2nc(N)nc(C(C)C)n2)c1 (stereo not drawn) [Example 213] | good and in most cases very good herbicidal activity | very good herbicidal activity | good and in most cases very good herbicidal activity |
| CCC(CCOc1cccc(F)c1)Nc1nc(N)nc(C(C)C)n1 (stereo not drawn) [Example 381] | good and in most cases very good herbicidal activity | very good herbicidal activity | good and in most cases very good herbicidal activity |
| CC(CCOc1cccc(F)c1)Nc1nc(N)nc(C(C)(C)F)n1 (stereo not drawn) [Example 308] | good and in most cases very good herbicidal activity | very good herbicidal activity | good and in most cases very good herbicidal activity |
| CCC(CCOc1cccc(C)c1)Nc1nc(N)nc(C(C)(C)F)n1 (stereo not drawn) [Example 245] | good and in most cases very good herbicidal activity | very good herbicidal activity | good and in most cases very good herbicidal activity |
| CCC(CCOc1cccc(Cl)c1)Nc1nc(N)nc(C(C)(C)F)n1 (stereo not drawn) [Example 380] | good and in most cases very good herbicidal activity | very good herbicidal activity | good and in most cases very good herbicidal activity |
| CCC(CCOc1cc(C)cc(C)c1)Nc1nc(N)nc(C(C)C)n1 (stereo not drawn) [Example 340] | good and in most cases very good herbicidal activity | very good herbicidal activity | good and in most cases very good herbicidal activity |
| CCC(CCOc1cccc(OC)c1)Nc1nc(N)nc(C(C)(C)F)n1 (stereo not drawn) [Example 384] | good and in most cases very good herbicidal activity | very good herbicidal activity | good and in most cases very good herbicidal activity |
| CCC(CCOc1cccc(Cl)c1)Nc1nc(N)nc(C(C)F)n1 (stereo not drawn) [Example 220] | good and in most cases very good herbicidal activity | very good herbicidal activity | good and in most cases very good herbicidal activity |
| CC(CCOc1cc(F)cc(F)c1)Nc1nc(N)nc(C(C)(C)F)n1 (stereo not drawn) [Example 207] | good and in most cases very good herbicidal activity | very good herbicidal activity | good and in most cases very good herbicidal activity |
| CCC(COC(=O)c1ccccc1C)Nc1nc(N)nc(C(C)C)n1 (stereo not drawn) [Example 42] | good and in most cases very good herbicidal activity | very good herbicidal activity | good and in most cases very good herbicidal activity |
| COc1cccc(OCCC(C)Nc2nc(N)nc(C(C)(C)F)n2)c1 (stereo not drawn) [Example 303] | good and in most cases very good herbicidal activity | very good herbicidal activity | good and in most cases very good herbicidal activity |
| CCC(CCOc1cccc(F)c1)Nc1nc(N)nc(C(C)(C)F)n1 (stereo not drawn) [Example 222] | good and in most cases very good herbicidal activity | very good herbicidal activity | good and in most cases very good herbicidal activity |
| Cc1ccccc1C(=O)OCC(C)Nc1nc(N)nc(C(C)C)n1 (stereo not drawn) [Example 41] | good and in most cases very good herbicidal activity | very good herbicidal activity | good and in most cases very good herbicidal activity |
| CC(CCOc1cccc(Cl)c1)Nc1nc(N)nc(C(C)(C)F)n1 (stereo not drawn) [Example 299] | good and in most cases very good herbicidal activity | very good herbicidal activity | good and in most cases very good herbicidal activity |

— US20030186817A1, “SUBSTITUTED 2,4-DIAMINO-1,3,5-TRIAZINES, PROCESSES FOR THEIR PREPARATION AND THEIR USE AS HERBICIDES AND PLANT GROWTH REGULATORS” (priority 1998, published 2003)
